GI50 and Kd data for 13 compounds are collected here from US20260159520A1, “HETEROBIFUNCTIONAL COMPOUNDS AND METHODS OF TREATING DISEASE” (Halda Therapeutics OpCo, Inc., priority 2022, published 2026).

In one assay the test system is T47D cells. The assay can be described thus: Cellular growth inhibition assay for T47D cells. Format: cell-based. The following applies: Homo sapiens, 72 hours, CellTiter-Glo 2.0. As for the experimental part:
T47D cells were purchased from American Type Cell Culture (ATCC Cat #HTB-133) and then seeded on poly-D-lysine coated, black clear-bottom 384-well plates at 3000/well in 25 μL Dulbecco's Modified Eagle Medium (DMEM) supplemented with 10% w/w Fetal bovine serum (FBS), 0.2 units/mL recombinant human insulin (Gibco Cat #12585014), and 1% w/w Pen-Strep. Pen-Strep is a commercially available mixture of penicillin G and streptomycin, which is used in mammalian cell culture media to prevent bacterial contamination. Dulbecco's Modified Eagle Medium (DMEM) supplemented with 10% w/w fetal bovine serum (FBS), 0.2 units/mL recombinant human insulin, and 1% w/w Pen-Strep is herein referred to as Treatment Medium. Following seeding of cells in the plates, the plates were spun at 300×g for 30 seconds, then equilibrated to room temperature for 30 minutes, and then deposited in a humidified tissue culture incubator maintained at 37° C. with 5% CO2.
At 24 hours after seeding of the cells, dilutions of test compound were prepared in DMSO and dissolved in Treatment Medium, to achieve a final DMSO concentration of 0.5% w/w, thereby providing the Test Compound Solution. A 25 μL aliquot of the Test Compound Solution was added to cells in the well plates. An equal volume of a solution containing DMSO and Treatment Medium was used as a negative control. Following treatment of cells with Test Compound Solution or said equal volume of a solution containing DMSO and Treatment Medium, the plates were spun at 300×g for 30 seconds, and then left in an incubator for 72 hours.
At the end of the treatment duration, cell viability was quantified with CellTiter-Glo 2.0 reagent (Promega Cat #G9243). For this purpose, plates were equilibrated to room temperature for 30 minutes, and then 25 μL of CellTiter-Glo 2.0 reagent was added to cells in the plate wells. Plates were then agitated on a shaker for two minutes at 500 rpm and subsequently incubated at room temperature for 10 minutes. Following incubation, the plates were spun at 3000×g for 30 seconds, then sealed with an optical adhesive cover, and luminescence readings were measured with an EnVision Plate Reader (Perkin Elmer).
Data was normalized using zero luminescence for baseline. A four-parameter non-linear regression curve fit was applied to dose-response data in GraphPad Prism data analysis software to determine the half-maximal growth inhibitory concentration (GI50) for each test compound.

The subject of assay [1] is T-Rex 293 cell line SC3 cells having increased expression of androgen receptor protein. The assay can be described thus: Cellular growth inhibition, T-Rex 293 SC3 cells with doxycycline (increased androgen receptor expression). It counts as cell-based. The following applies: with 10 ng/mL doxycycline (increased androgen receptor), 72 hours, CellTiter-Glo 2.0. The essentials:
(§1)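 Growth inhibition is measured in an inducible AR-expressing T-Rex 293 clone, SC3, cultured with or without 10 ng/mL doxycycline in hormone-depleted medium. Test compounds are applied for 72 hours. GI50 values derive from CellTiter-Glo 2.0 signal fitted by four-parameter regression.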

Assay [2] concerns T-Rex 293 cell line SC3 cells lacking increased expression of androgen receptor protein. The assay can be described thus: Cellular growth inhibition, T-Rex 293 SC3 cells without doxycycline. Format: cell-based. The following applies: not exposed to doxycycline, 72 hours, CellTiter-Glo 2.0. The essentials:
as §1

The next assay deals with T1, CDK9 (Homo sapiens, UniProt P50750).
T1 construct: made in house; host or cells: E. coli BL21-derived host (T7 phage) or HEK-293 ('BEK-293' [sic])
T1 sequence (P50750 whole entry): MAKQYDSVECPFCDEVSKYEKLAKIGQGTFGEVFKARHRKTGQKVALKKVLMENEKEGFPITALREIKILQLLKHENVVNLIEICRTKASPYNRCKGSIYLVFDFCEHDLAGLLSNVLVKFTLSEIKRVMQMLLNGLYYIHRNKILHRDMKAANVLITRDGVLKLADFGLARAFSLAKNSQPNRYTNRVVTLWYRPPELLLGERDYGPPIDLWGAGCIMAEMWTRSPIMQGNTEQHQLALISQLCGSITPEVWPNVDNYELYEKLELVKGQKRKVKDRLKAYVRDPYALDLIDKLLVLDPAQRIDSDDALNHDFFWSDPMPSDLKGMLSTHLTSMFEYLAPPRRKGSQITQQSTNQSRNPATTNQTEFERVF
The assay can be described thus: KdELECT binding assay, CDK9. The following applies: CDK9, Table 7. The protocol:
Compounds were tested using a KdELECT. Kinase-tagged T7 phage strains were prepared in an E. coli host derived from the BL21 strain. E. coli were grown to log-phase and infected with T7 phage and incubated with shaking at 32° C. until lysis. The lysates were centrifuged and filtered to remove cell debris. The remaining kinases were produced in BEK-293 cells and subsequently tagged with DNA for qPCR detection. Streptavidin-coated magnetic beads were treated with biotinylated small molecule ligands for 30 minutes at room temperature to generate affinity resins for kinase assays. The liganded beads were blocked with excess biotin and washed with blocking buffer (SeaBlock (Pierce), 1% BSA, 0.05% Tween 20, 1 mM DTT) to remove unbound ligand and to reduce non-specific binding. Binding reactions were assembled by combining kinases, liganded affinity beads, and test compounds in 1× binding buffer (20% SeaBlock, 0.17×PBS, 0.05% Tween 20, 6 mM DTT). Test compounds were prepared as 111× stocks in 100% DMSO. Kd values were determined using an 11-point 3-fold compound dilution series with three DMSO control points. All compounds for Kd measurements are distributed by acoustic transfer (non-contact dispensing) in 100% DMSO. The compounds were then diluted directly into the assays such that the final concentration of DMSO was 0.9%. All reactions performed in polypropylene 384-well plate. Each was a final volume of 0.02 mL. The assay plates were incubated at room temperature with shaking for 1 hour and the affinity beads were washed with wash buffer (lx PBS, 0.05% Tween 20). The beads were then re-suspended in elution buffer (lx PBS, 0.05% Tween 20, 0.5 μM nonbiotinylated affinity ligand) and incubated at room temperature with shaking for 30 minutes. The kinase concentration in the eluates was measured by qPCR.

The next assay relates to VCaP cells. The assay can be described thus: Cellular growth inhibition assay for VCaP cells. The following applies: Homo sapiens, 72 hours, CellTiter-Glo 2.0. Format: cell-based.

`CC1(C)[C@H](NC(=O)c2cnc(N3CCC(OCCOCCOCCOCCOCCNS(=O)(=O)c4ccc(Nc5ncc(Br)c(Nc6cccc(F)c6C(N)=O)n5)cc4)CC3)nc2)C(C)(C)[C@H]1Oc1ccc(C#N)c(Cl)c1` [Compound I-15]: the figures for the GI50 (in the assay with T47D cells; in assay [1]; in assay [2]) were 0.5 to 1.5 µM, > 3.5 µM and > 3.5 µM, respectively. In addition, on CDK9, the Kd is > 2.5 µM.

In the case of `CCc1cnn2c(NCc3ccc(OCCOCCN4CC5CN(c6ncc(C(=O)N[C@H]7C(C)(C)[C@H](Oc8ccc(C#N)c(Cl)c8)C7(C)C)cn6)CC5C4)nc3)cc(N3CCCC[C@H]3CCO)nc12` (some centres unmarked) [Compound I-62], the values for the GI50 (in assay [1]; in assay [2]; with VCaP cells) were < 0.1 µM, 0.1 to 1 µM and 0.1 to 1 µM, respectively. The compound further returned an equilibrium dissociation constant (Kd) on CDK9 of 0.05 to 0.5 µM.

As to `CCc1cnn2c(NCc3ccc(OCCOC4CCN(C5CN(c6ncc(C(=O)N[C@H]7C(C)(C)[C@H](Oc8ccc(C#N)c(Cl)c8)C7(C)C)cn6)C5)CC4)nc3)cc(N3CCCC[C@H]3CCO)nc12` [Compound I-63], the concentration for 50% growth inhibition (GI50) (in assay [1]; in assay [2]; in the assay with VCaP cells) was < 0.1 µM each time. Besides, on CDK9, the Kd is < 0.05 µM.

As to `CCc1cnn2c(NCc3ccc(N(C)CC4CCN(CC5CCN(c6ncc(C(=O)N[C@H]7C(C)(C)[C@H](Oc8ccc(C#N)c(Cl)c8)C7(C)C)cn6)CC5)CC4)nc3)cc(N3CCCC[C@H]3CCO)nc12` [Compound I-59, N-((1r,3r)-3-(3-chloro-4-cyanophenoxy)-2,2,4,4-tetramethylcyclobutyl)-2-(4-((4-(((5-(((3-ethyl-5-((S)-2-(2-hydroxyethyl)piperidin-1-yl)pyrazolo[1,5-a]pyrimidin-7-yl)amino)methyl)pyridin-2-yl)(methyl)amino)methyl)piperidin-1-yl)methyl)piperidin-1-yl)pyrimidine-5-carboxamide], the GI50 with T47D cells is < 0.5 µM; in assay [1] it was < 0.1 µM; in assay [2] it was 0.1 to 1 µM; in the assay on VCaP cells, 0.1 to 1 µM. In addition, the dissociation constant Kd at CDK9 is < 0.05 µM.

As to `CC1(C)[C@H](NC(=O)c2cnc(N3CCC(OCCN4C/C=C/CCOc5cccc(c5)-c5ccnc(n5)Nc5cccc(c5)C4)CC3)nc2)C(C)(C)[C@H]1Oc1ccc(C#N)c(Cl)c1` [Compound I-87, N-[3-(3-chloro-4-cyano-phenoxy)-2,2,4,4-tetramethyl-cyclobutyl]-2-[4-[2-[(16E)-20-oxa-5,7,14,27-tetrazatetracyclo [19.3.1.12,6.18,12]heptacosa-1(24),2(27),3,5,8(26),9,11,16, 21(25),22-decaen-14-yl]ethoxy]-1-piperidyl]pyrimidine-5-carboxamide], the concentration for 50% growth inhibition (GI50) is 0.5 to 1.5 µM in the assay with T47D cells, 0.1 to 1 µM in assay [1], > 3.5 µM in assay [2] and > 3.5 µM in the assay with VCaP cells. This compound had a Kd at CDK9 of 0.5 to 2.5 µM.

Turning to `CC1(C)[C@H](NC(=O)c2cnc(N3CCC(OCCCN4CCN(CCCNS(=O)(=O)c5ccc(Nc6ncc(Br)c(Nc7cccc(F)c7C(N)=O)n6)cc5)CC4)CC3)nc2)C(C)(C)[C@H]1Oc1ccc(C#N)c(Cl)c1` [Compound I-17], the concentration for 50% growth inhibition (GI50) in the assay with T47D cells is 1.5 to 3 µM; in assay [1], > 3.5 µM; in assay [2], > 3.5 µM. Further, the Kd at CDK9 was > 2.5 µM.

As for `COc1cc(F)ccc1-c1ccnc2[nH]c(C3CCN(CCOCCOCCOCCOC4CCN(c5ncc(C(=O)N[C@H]6C(C)(C)[C@H](Oc7ccc(C#N)c(Cl)c7)C6(C)C)cn5)CC4)CC3)cc12` [Compound I-70], the GI50 with T47D cells was in the range of 1.5 to 3 µM; in assay [1], 1 to 3.5 µM; in assay [2], 1 to 3.5 µM; with VCaP cells it was 0.1 to 1 µM. Also, the Kd at CDK9 lay in the range of 0.05 to 0.5 µM.

On to `CN(CCOCCOCCOCCOCCNS(=O)(=O)c1ccc(Nc2ncc(Br)c(Nc3cccc(F)c3C(N)=O)n2)cc1)c1ncc(C(=O)N[C@H]2C(C)(C)[C@H](Oc3ccc(C#N)c(Cl)c3)C2(C)C)cn1` [Compound I-20], for which the results for the GI50 (in the assay with T47D cells; in assay [1]; in assay [2]) were < 0.5 µM, > 3.5 µM and > 3.5 µM, respectively. For the same compound, the Kd at CDK9 is > 2.5 µM.

Turning to `COc1cc(F)ccc1-c1ccnc2[nH]c(C3CCN(CCOCCOC4CCN(c5ncc(C(=O)N[C@H]6C(C)(C)[C@H](Oc7ccc(C#N)c(Cl)c7)C6(C)C)cn5)CC4)CC3)cc12` [Compound I-69], the GI50 fell in the range of 1.5 to 3 µM in the assay on T47D cells, 0.1 to 1 µM in assay [1], 0.1 to 1 µM in assay [2] and 0.1 to 1 µM in the assay with VCaP cells. On CDK9, the Kd is < 0.05 µM.

On to `CC1(C)[C@H](NC(=O)c2cnc(N3CCC(OCCOCCOCCOCCN4C/C=C/CCOc5cccc(c5)-c5ccnc(n5)Nc5cccc(c5)C4)CC3)nc2)C(C)(C)[C@H]1Oc1ccc(C#N)c(Cl)c1` [Compound I-90], for which the GI50 with T47D cells was < 0.5 µM; in assay [1] it was 0.1 to 1 µM; in assay [2] it was > 3.5 µM; with VCaP cells, 0.1 to 1 µM. Further, the Kd on CDK9 lay in the range of 0.5 to 2.5 µM.

Regarding `CC(C)n1cc(-c2ccnc3[nH]c(C4CCN(CCOCCOCCOCCOC5CCN(c6ncc(C(=O)N[C@H]7C(C)(C)[C@H](Oc8ccc(C#N)c(Cl)c8)C7(C)C)cn6)CC5)CC4)cc23)ccc1=O` [Compound I-78], the GI50 in the assay with T47D cells is 0.5 to 1.5 µM; in assay [1], < 0.1 µM; in assay [2] it was 0.1 to 1 µM; in the assay on VCaP cells it was < 0.1 µM. Further, the Kd on CDK9 was < 0.05 µM.

`CC(C)n1cc(-c2ccnc3[nH]c(C4CCN(CCOCCOC5CCN(c6ncc(C(=O)N[C@H]7C(C)(C)[C@H](Oc8ccc(C#N)c(Cl)c8)C7(C)C)cn6)CC5)CC4)cc23)ccc1=O` [Compound I-76]: the GI50 is < 0.5 µM with T47D cells, 0.1 to 1 µM in assay [1], 0.1 to 1 µM in assay [2] and < 0.1 µM in the assay on VCaP cells. The Kd at CDK9 was < 0.05 µM.

On to `CN(CCCN1CCN(CCCNS(=O)(=O)c2ccc(Nc3ncc(Br)c(Nc4cccc(F)c4C(N)=O)n3)cc2)CC1)c1ncc(C(=O)N[C@H]2C(C)(C)[C@H](Oc3ccc(C#N)c(Cl)c3)C2(C)C)cn1` [Compound I-22, 2-((3-(4-(3-((4-((5-bromo-4-((2-carbamoyl-3-fluorophenyl)amino)pyrimidin-2-yl)amino)phenyl)sulfonamido)propyl)piperazin-1-yl)propyl) (methyl)amino)-N-((1r,3r)-3-(3-chloro-4-cyanophenoxy)-2,2,4,4-tetramethylcyclobutyl) pyrimidine-5-carboxamide], for which the figures for the GI50 (with T47D cells; in assay [1]; in assay [2]) were < 0.5 µM, 1 to 3.5 µM and > 3.5 µM, respectively. Moreover, the dissociation constant Kd at CDK9 lay within 0.5 to 2.5 µM.
